One molecule from US11767278B2, “Plant extract compositions for forming protective coatings” (Apeel Technology, Inc., priority 2015, dated 2023) can be followed below.

This test deals with avocados. Put plainly: Mass loss rates of avocados coated with compounds extracted by thermal depolymerization of cutin. The note with it: unpeeled avocados dipped in 10 mg/mL solution in ethanol, humidity about 40%-55%. On the set-up: species or system avocado. As to the method: Protective coatings were formed over avocados by extracting compounds by method described herein (thermal depolymerization of cutin) and depositing the compounds over the outer surface of the (unpeeled) avocados. The mass loss rates of the avocados were then measured and compared to those of uncoated avocados. All coatings were formed by dipping the avocados in a solution comprising the associated compounds dissolved in substantially pure ethanol at a concentration of 10 mg/mL, placing the avocados on drying racks, and allowing the avocados to dry under ambient room conditions at a temperature in the range of about 23° C.-27° C. and humidity in the range of about 40%-55%. The avocados were held at these same temperature and humidity conditions for the entire duration of the time they were tested.
Mass loss rates are shown in FIG. 16 for untreated (e.g., uncoated) avocados in bar 1602, for avocados coated with ethyl 10,16-dihydroxyhexadecanoate (referred to as “EtDHPA”) in bar 1604, and for avocados coated with a mixture of EtDHPA and 1,3-dihydroxypropan-2-yl hexadecanoate (referred to as “PA-2G”) in bar 1606, where for bar 1606 the EtDHPA and PA-2G were mixed at a mass ratio of 30:70. […]

In the case of `CCOC(=O)CCCCCCCCC(O)CCCCCCO` (centres unmarked) [EtDHPA, ethyl 10,16-dihydroxyhexadecanoate], under “dried, held at about 23-27 °C, group of 30 avocados, FIG. 16”, the “average rate of mass decrease of coated avocados (mass loss rate)” value is on record as “about 1.06 % per day”. Besides, the “reduction of average mass loss rate as compared to the uncoated avocados” value (about 23-27 °C, uncoated avocados about 1.21% per day) is listed as “more than 12%”.
